Patent publication US20200237738A1, “PHARMACEUTCAL COMPOSITION FOR PREVENTING OR TREATING CANCER, CONTAINING STREPTONIGRIN AND RAPAMYCIN AS ACTIVE INGREDIENTS” (MD BIOLAB CO., LTD., priority 2017, published 2020)

Columns and labels:
[1] = system: renal cancer cell line (ACHN cells and CAKI-1 cells); assay: Trypan blue live cell count, renal cancer cell line (cell line not distinguished); assay type: cell-based; conditions: 48 h, read-out: cell viability relative to untreated control
Experimental: Specifically, after ACHN cells which are a renal cancer cell (RCC) line and CAKI-1 cells (provided by the National Cancer Center, Korea) were each inoculated into an RPM1640 medium containing 10% FBS and cultured, and then further cultured for 48 hours after being treated with 10 nM rapamycin and/or 10 nM streptonigrin in combination or alone. After the culture, cells were stained by treating respective cells with 0.4% trypan blue, and live and dead cells were sorted and counted. For the number of counted cells, the ratio of the number of relative live cells was calculated based on the number of live cells of an untreated control which had not been treated with rapamycin and streptonigrin.
Specifically, the relative ratio of the number of live cells was calculated in the same manner as in Example <2-1>, using 5 μM of pazopanib and 2 nM of streptonigrin.

[2] = system: CAKI-1 renal cancer cell line xenograft; assay: CD31 immunohistochemistry of tumors in CAKI-1 xenograft mouse model; assay type: in vivo, mice
Experimental: Specifically, a mouse model was prepared by xenografting mice with a CAKI-1 cell line which is a renal cancer cell line. And then, the formation of a tumor was observed after administering streptonigrin to the mouse model at a dose of 0.1 mg/kg or 0.2 mg/kg, and breeding the mice. After the xenografting, a biopsy tissue sample was obtained by excising tumor sites, and the level of expression of CD31-positive cells, which are a blood vessel specific marker, was confirmed by immunohistochemically staining the sample.

[3] = system: human umbilical vein endothelial cells (HUVECs); assay: BrdUrd labeling assay (proliferation) in HUVECs; assay type: cell-based; conditions: compared to siCTL control
Experimental: Specifically, human umbilical vein endothelial cells (HUVECs) were inoculated into a medium and cultured, and then further cultured after the medium was treated with siRNA of siCTL or siTGase2 (siTG2) and VEGF as a vascular growth promoting factor. After cells treated with the siRNA and VEGF were cultured, the medium was again treated with bromodeoxyuridine (BudUrd), a BrdUrd labeling assay was performed. For quantification, BrdUrd-positive cells were counted among the cells grown on the medium. For the counted cells, the number of BrdUrd-positive cells in the siCTL-treated and VEGF-untreated groups was used as a reference, and the number of BrdUrd cells in each experimental group was obtained as a relative percentage.

[4] = system: human umbilical vein endothelial cells (HUVECs); assay: Migration of HUVECs; assay type: cell-based; conditions: compared to siCTL control
[5] = system: human umbilical vein endothelial cells (HUVECs); assay: Angiogenesis analysis (tube segments on Matrigel) in HUVECs; assay type: cell-based; conditions: compared to siCTL control
Experimental: At the same time, an angiogenesis analysis was also performed. Cells were allowed to adhere to the well surface and cultured by inoculating HUVEC cells into Matrigel-coated wells. Cells were further cultured by adding VEGF and each siRNA to the medium, and then tube segments formed were counted using an angiogenesis assay kit.

CO[C@H]1C[C@@H]2CC[C@@H](C)[C@@](O)(O2)C(=O)C(=O)N2CCCC[C@H]2C(=O)O[C@H]([C@H](C)C[C@@H]2CC[C@@H](O)[C@H](OC)C2)CC(=O)[C@H](C)/C=C(\C)[C@@H](O)[C@@H](OC)C(=O)[C@H](C)C[C@H](C)/C=C/C=C/C=C/1C [rapamycin]
viability at 0.01 µM [1]: ≥ 90%

COC1=C(N)C(=O)c2nc(-c3nc(C(=O)O)c(C)c(-c4ccc(OC)c(OC)c4O)c3N)ccc2C1=O [streptonigrin]
viability at 0.01 µM [1]: ≥ 65% | number of CD31-positive cells with increasing dose ([2]; streptonigrin 0.1 mg/kg or 0.2 mg/kg): decreased | level of CD31-positive cells relative to control ([2]; streptonigrin 0.2 mg/kg, tumor biopsy): about 20%

VEGF
proliferation of cells (BrdUrd-positive cells) [3]: sharply increased | migration of cells [4]: sharply increased | angiogenesis degree (tube formation) [5]: sharply increased
